In ChEMBL document CHEMBL4257082, “Nhe3-binding compounds and methods for inhibiting phosphate transport” (2016):

Columns and labels:
[1] = target: T1, Sodium/hydrogen exchanger 2 (Rattus norvegicus, UniProt P48763); test: Inhibition of rat NHE2
T1 sequence (P48763 whole entry): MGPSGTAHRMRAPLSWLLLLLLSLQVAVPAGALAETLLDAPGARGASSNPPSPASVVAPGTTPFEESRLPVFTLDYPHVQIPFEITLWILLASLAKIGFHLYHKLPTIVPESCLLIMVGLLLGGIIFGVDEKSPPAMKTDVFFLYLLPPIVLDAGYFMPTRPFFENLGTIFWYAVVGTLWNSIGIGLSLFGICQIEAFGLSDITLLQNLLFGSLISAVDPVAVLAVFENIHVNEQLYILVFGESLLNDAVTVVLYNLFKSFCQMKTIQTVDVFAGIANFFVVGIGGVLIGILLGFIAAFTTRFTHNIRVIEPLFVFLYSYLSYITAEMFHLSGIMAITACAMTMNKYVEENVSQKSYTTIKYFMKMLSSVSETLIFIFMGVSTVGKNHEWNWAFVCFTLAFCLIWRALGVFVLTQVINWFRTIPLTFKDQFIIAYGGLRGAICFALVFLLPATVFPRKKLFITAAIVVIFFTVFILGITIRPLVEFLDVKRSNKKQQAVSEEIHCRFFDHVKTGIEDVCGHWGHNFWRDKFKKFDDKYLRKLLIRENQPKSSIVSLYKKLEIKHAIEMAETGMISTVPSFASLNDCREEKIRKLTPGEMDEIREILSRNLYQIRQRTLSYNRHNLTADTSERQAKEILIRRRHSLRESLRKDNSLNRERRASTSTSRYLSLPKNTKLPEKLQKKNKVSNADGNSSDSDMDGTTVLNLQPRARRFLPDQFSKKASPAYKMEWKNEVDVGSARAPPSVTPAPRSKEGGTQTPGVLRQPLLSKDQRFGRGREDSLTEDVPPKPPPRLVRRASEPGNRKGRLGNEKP

[2] = target: Sodium/hydrogen exchanger 1 (Rattus norvegicus, UniProt P26431); test: Inhibition of rat NHE1
[3] = target: Sodium/hydrogen exchanger 3 (Rattus norvegicus, UniProt P26433); test: Inhibition of rat NHE3
Sodium/hydrogen exchanger 3, sequence (P26433 whole entry): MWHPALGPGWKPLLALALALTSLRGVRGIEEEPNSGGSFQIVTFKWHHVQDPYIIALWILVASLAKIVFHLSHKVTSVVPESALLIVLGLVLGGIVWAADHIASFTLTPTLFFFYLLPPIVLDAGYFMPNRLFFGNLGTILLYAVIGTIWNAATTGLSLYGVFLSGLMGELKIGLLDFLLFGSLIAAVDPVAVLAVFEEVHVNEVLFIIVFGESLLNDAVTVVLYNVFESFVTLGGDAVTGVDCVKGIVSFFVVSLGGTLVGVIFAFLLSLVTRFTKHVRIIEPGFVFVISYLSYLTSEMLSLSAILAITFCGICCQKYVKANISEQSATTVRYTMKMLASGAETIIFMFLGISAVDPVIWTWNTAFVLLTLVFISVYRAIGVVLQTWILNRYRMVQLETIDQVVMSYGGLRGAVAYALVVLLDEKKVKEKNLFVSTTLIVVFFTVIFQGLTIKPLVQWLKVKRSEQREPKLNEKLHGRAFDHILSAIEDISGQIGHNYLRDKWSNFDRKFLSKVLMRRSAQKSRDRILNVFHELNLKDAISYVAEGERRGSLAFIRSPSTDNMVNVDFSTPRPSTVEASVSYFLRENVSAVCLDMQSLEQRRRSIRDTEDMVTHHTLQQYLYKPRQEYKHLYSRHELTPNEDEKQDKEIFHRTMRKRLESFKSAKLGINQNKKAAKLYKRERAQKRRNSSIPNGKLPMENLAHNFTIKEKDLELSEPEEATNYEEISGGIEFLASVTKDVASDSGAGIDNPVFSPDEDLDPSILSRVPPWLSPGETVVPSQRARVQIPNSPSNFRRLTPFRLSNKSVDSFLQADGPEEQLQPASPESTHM

Sodium/hydrogen exchanger 1, sequence (P26431 whole entry): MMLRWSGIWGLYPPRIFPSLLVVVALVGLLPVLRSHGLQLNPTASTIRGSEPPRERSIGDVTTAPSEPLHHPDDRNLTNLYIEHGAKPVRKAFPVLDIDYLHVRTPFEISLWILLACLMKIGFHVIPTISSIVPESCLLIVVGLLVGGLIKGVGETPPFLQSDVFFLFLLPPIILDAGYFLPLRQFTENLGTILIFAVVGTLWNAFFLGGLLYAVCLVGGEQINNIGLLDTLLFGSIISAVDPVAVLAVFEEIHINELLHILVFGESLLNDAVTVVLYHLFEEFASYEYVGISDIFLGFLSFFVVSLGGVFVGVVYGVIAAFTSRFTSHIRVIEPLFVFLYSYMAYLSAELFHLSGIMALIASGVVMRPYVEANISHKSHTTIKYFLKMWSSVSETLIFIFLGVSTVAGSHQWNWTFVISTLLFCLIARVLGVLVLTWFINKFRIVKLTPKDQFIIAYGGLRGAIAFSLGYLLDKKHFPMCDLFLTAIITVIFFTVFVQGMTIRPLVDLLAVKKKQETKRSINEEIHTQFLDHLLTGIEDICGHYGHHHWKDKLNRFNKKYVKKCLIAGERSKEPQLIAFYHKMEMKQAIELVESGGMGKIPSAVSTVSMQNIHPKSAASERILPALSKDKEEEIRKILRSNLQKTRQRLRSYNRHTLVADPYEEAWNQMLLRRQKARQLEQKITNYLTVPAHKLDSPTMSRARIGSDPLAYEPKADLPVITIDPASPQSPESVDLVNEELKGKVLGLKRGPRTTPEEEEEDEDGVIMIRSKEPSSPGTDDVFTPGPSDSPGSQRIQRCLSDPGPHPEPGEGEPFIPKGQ

CN(C)c1nc(N)c(C(=O)NC(=N)N)nc1Cl
IC50 [1]: 250 nM
IC50 [2]: 23 nM
IC50 [3]: 14000 nM
